We go through 20 compounds from patent US9695154B2, “Heteroaryl inhibitors of sumo activating enzyme” (MILLENNIUM PHARMACEUTICALS, INC., priority 2013, dated 2017).

This experiment has as its target T1, recombinant human SAE enzyme (Homo sapiens, UniProt Q9UBT2).
T1 sequence (Q9UBT2 1-640): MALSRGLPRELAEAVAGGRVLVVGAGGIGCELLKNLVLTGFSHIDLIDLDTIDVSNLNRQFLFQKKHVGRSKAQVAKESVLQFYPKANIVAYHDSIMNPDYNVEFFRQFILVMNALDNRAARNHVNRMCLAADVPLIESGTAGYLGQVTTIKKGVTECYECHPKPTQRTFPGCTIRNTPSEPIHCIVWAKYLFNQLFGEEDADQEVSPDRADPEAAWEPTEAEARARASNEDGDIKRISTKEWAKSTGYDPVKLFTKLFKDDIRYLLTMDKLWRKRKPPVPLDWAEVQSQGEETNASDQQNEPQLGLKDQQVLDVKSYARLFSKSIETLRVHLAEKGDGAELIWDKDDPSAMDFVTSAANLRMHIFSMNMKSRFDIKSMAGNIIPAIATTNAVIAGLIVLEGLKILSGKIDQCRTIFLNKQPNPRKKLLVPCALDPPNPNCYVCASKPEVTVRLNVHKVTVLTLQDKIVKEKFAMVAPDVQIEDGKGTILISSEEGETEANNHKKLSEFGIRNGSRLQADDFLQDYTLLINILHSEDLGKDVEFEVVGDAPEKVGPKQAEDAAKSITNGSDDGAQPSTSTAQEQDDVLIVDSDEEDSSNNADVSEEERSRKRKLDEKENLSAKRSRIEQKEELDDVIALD
T1 sequence (Q9UBE0 1-346 partner): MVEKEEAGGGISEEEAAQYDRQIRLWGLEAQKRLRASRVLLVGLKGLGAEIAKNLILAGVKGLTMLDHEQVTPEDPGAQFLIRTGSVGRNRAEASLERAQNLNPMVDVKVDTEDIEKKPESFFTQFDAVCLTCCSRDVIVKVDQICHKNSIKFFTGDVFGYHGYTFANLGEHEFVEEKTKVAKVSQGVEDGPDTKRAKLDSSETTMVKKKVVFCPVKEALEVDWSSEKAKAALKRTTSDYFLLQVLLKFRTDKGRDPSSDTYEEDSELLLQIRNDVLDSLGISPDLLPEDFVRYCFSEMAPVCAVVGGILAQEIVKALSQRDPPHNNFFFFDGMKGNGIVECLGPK
The experiment can be described thus: SAE HTRF Enzyme Assay. It counts as biochemical. The settings on record: for pIC50: class symbols A-C; for inhibition at 0.111 µM: compound concentration 0.111 μM, read-out: Percent Inhibition. The method, boiled down:
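HTRF signal from Eu-anti-Flag/APC-anti-GST pairs reports Sumo-Flag loaded onto Ubc9-GST by 0.11 nM SAE. Reaction: 0.5 μM ATP, 0.125 μM Sumo-Flag, 0.01 μM Ubc9-GST, 5 mM MgCl2, pH 7.5, 105 min, 24° C. Single-concentration % inhibition or IC50 reported.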

Each structure is given as a SMILES string. pIC50: −log10 of the molar value.

Broadly, the pIC50 is the negative decadic logarithm of the IC50, by convention in mol/L. By inhibition is commonly meant the percentage by which the read-out fell short of the control. Regarding `NS(=O)(=O)OC[C@H]1C[C@@H](Nc2ncncc2C(=O)c2ccn(Cc3cccc(F)c3F)n2)[C@H](O)[C@@H]1O` [Compound I-327, {(1R,2R,3S,4R)-4-[(5-{[1-(2,3-difluorobenzyl)-1H-pyrazol-3-yl]carbonyl}pyrimidin-4-yl)amino]-2,3-dihydroxycyclopentyl}methyl sulfamate], the pIC50 is more than 8.00 and the inhibition at 0.111 µM was found to be 99%.
Take `NS(=O)(=O)OC[C@H]1C[C@@H](Nc2ncncc2C(=O)c2ccn(Cc3ccc(F)cc3C(F)(F)F)n2)C[C@@H]1O` [Compound I-328, [(1R,2S,4R)-4-{[5-({1-[4-fluoro-2-(trifluoromethyl)benzyl]-1H-pyrazol-3-yl}carbonyl)pyrimidin-4-yl]amino}-2-hydroxycyclopentyl]methyl sulfamate]: the pIC50 was 7.00 to 8.00 and the inhibition at 0.111 µM was found to be 65%.
On to `NS(=O)(=O)OC[C@H]1C[C@@H](Nc2ncncc2C(=O)c2ccn(Cc3cc(F)c(F)cc3F)n2)C[C@@H]1O` [Compound I-329, {(1R,2S,4R)-2-hydroxy-4-[(5-{[1-(2,4,5-trifluorobenzyl)-1H-pyrazol-3-yl]carbonyl}pyrimidin-4-yl)amino]cyclopentyl}methyl sulfamate], for which the pIC50 was more than 8.00 and the inhibition at 0.111 µM is 93%.
Turning to `C#CCn1ccc(C(=O)c2cncnc2N[C@@H]2C[C@H](COS(N)(=O)=O)[C@@H](O)C2)c1` [Compound I-330, {(1R,2S,4R)-2-hydroxy-4-[(5-{[1-{prop-2-yn-1-yl)-1H-pyrrol-3-yl]carbonyl}pyrimidin-4-yl)amino]cyclopentyl}methyl sulfamate], the pIC50 is 7.00 to 8.00 and the inhibition at 0.111 µM was determined as 82%.
Regarding `NS(=O)(=O)OC[C@H]1C[C@@H](Nc2ncncc2C(=O)c2ccn(Cc3ccc(Cl)c(Cl)c3)c2)[C@@H](F)[C@@H]1O` [Compound I-331, {(1R,2R,3R,4R)-4-[(5-{[1-(3,4-dichlorobenzyl)-1H-pyrrol-3-yl]carbonyl}pyrimidin-4-yl)amino]-3-fluoro-2-hydroxycyclopentyl}methyl sulfamate], the pIC50 is more than 8.00 and the inhibition at 0.111 µM was determined as 99%.
On the same counts, the results for `NS(=O)(=O)OC[C@H]1C[C@@H](Nc2ncncc2C(=O)c2ccn(Cc3cccc(Br)c3)c2)C[C@@H]1O` [Compound I-333, {(1R,2S,4R)-4-[(5-{[1-(3-bromobenzyl)-1H-pyrrol-3-yl]carbonyl}pyrimidin-4-yl)amino]-2-hydroxycyclopentyl}methyl sulfamate] are more than 8.00 and 99%.
On the same counts, the results for `NS(=O)(=O)OC[C@H]1C[C@@H](Nc2ncncc2C(=O)c2ccn(Cc3cc(F)cc(Cl)c3)n2)[C@H](O)[C@@H]1O` [Compound I-334, {(1R,2R,3S,4R)-4-[(5-{[1-(3-chloro-5-fluorobenzyl)-1H-pyrazol-3-yl]carbonyl}pyrimidin-4-yl)amino]-2,3-dihydroxycyclopentyl}methyl sulfamate] are more than 8.00 and 98%.
Regarding `NS(=O)(=O)OC[C@H]1C[C@@H](Nc2ncncc2C(=O)c2cc(CO)n(Cc3ccccc3)n2)C[C@@H]1O` [Compound I-335, {(1R,2S,4R)-4-[(5-{[1-Benzyl-5-(hydroxymethyl)-1H-pyrazol-3-yl]carbonyl}pyrimidin-4-yl)amino]-2-hydroxycyclopentyl}methyl sulfamate], the pIC50 was more than 8.00 and the inhibition at 0.111 µM was 97%.
On the same counts, the results for `NS(=O)(=O)OC[C@H]1C[C@@H](Nc2ncncc2C(=O)c2ccn(Cc3ccc(F)cc3F)n2)[C@H](O)[C@@H]1O` [Compound I-336, {(1R,2R,3S,4R)-4-[(5-{[1-(2,4-difluorobenzyl)-1H-pyrazol-3-yl]carbonyl}pyrimidin-4-yl)amino]-2,3-dihydroxycyclopentyl}methyl sulfamate] are more than 8.00 and 97%.
On the same counts, the results for `NS(=O)(=O)OC[C@H]1C[C@@H](Nc2ncncc2C(=O)c2ccn(Cc3ccc(Cl)c(Br)c3)c2)[C@@H](F)[C@@H]1O` [Compound I-337, {(1R,2R,3R,4R)-4-[(5-{[1-(3-bromo-4-chlorobenzyl)-1H-pyrrol-3-yl]carbonyl}pyrimidin-4-yl)amino]-3-fluoro-2-hydroxycyclopentyl}methyl sulfamate] are more than 8.00 and 98%.
With `NS(=O)(=O)OC[C@H]1C[C@@H](Nc2ncncc2C(=O)c2ccn(Cc3ccccc3F)n2)[C@H](O)[C@@H]1O` [Compound I-338, {(1R,2R,3S,4R)-4-[(5-{[1-(2-fluorobenzyl)-1H-pyrazol-3-yl]carbonyl}pyrimidin-4-yl)amino]-2,3-dihydroxycyclopentyl}methyl sulfamate], the pIC50 was more than 8.00 and the inhibition at 0.111 µM was determined as 99%.
On the same counts, the results for `CC#CCn1ccc(C(=O)c2cncnc2N[C@@H]2C[C@H](COS(N)(=O)=O)[C@@H](O)C2)c1` [Compound I-340, {(1R,2S,4R)-4-[(5-{[1-(but-2-yn-1-yl)-1H-pyrrol-3-yl]carbonyl}pyrimidin-4-yl)amino]-2-hydroxycyclopentyl}methyl sulfamate] are more than 8.00 and 94%.
On the same counts, the results for `NS(=O)(=O)OC[C@H]1C[C@@H](Nc2ncncc2C(=O)c2ccn(Cc3csc4ccc(Cl)cc34)c2)C[C@@H]1O` [Compound I-341, [(1R,2S,4R)-4-{[5-({1-[(5-chloro-1-benzothiophen-3-yl)methyl]-1H-pyrrol-3-yl}carbonyl)pyrimidin-4-yl]amino}-2-hydroxycyclopentyl]methyl sulfamate] are more than 8.00 and 98%.
For the compound `NS(=O)(=O)OC[C@@H]1C[C@@H](Nc2ncncc2C(=O)c2ccn(Cc3ccccc3)n2)C[C@@H]1O` [Compound I-342, [(1S,2S,4R)-4-({5-[(1-benzyl-1H-pyrazol-3-yl)carbonyl]pyrimidin-4-yl}amino)-2-hydroxycyclopentyl]methyl sulfamate], the negative logarithm of the IC50 (pIC50) was 7.00 to 8.00 and the inhibition at 0.111 µM was found to be 79%.
With `NS(=O)(=O)OC[C@H]1C[C@@H](Nc2ncncc2C(=O)c2ccn(Cc3ccc(F)c(C(F)(F)F)c3)n2)[C@H](O)[C@@H]1O` [Compound I-343, [(1R,2R,3S,4R)-4-{[5-({1-[4-fluoro-3-(trifluoromethyl)benzyl]-1H-pyrazol-3-yl}carbonyl)pyrimidin-4-yl]amino}-2,3-dihydroxycyclopentyl]methyl sulfamate], the pIC50 is more than 8.00 and the inhibition at 0.111 µM stood at 97%.
On the same counts, the results for `CC(C)=C(C)n1ccc(C(=O)c2cncnc2N[C@@H]2C[C@H](COS(N)(=O)=O)[C@@H](O)C2)n1` [Compound I-344, {(1R,2S,4R)-2-hydroxy-4-[(5-{[1-(3-methylbut-2-en-2-yl)-1H-pyrazol-3-yl]carbonyl}pyrimidin-4-yl)amino]cyclopentyl}methyl sulfamate] are 7.00 to 8.00 and 77%.
For `Cn1ccc(C(=O)c2cncnc2N[C@@H]2C[C@H](COS(N)(=O)=O)[C@@H](O)[C@H]2O)n1` [Compound I-345, [(1R,2R,3S,4R)-2,3-dihydroxy-4-({5-[(1-methyl-1H-pyrazol-3-yl)carbonyl]pyrimidin-4-yl}amino)cyclopentyl]methyl sulfamate], the pIC50 was 6.00 to 7.00 and the inhibition at 0.111 µM turned out to be 54%.
On the same counts, the results for `NS(=O)(=O)OC[C@H]1C[C@@H](Nc2ncncc2C(=O)c2ccn(Cc3cc(Br)ccc3F)n2)C[C@@H]1O` [Compound I-346, {(1R,2S,4R)-4-[(5-{[1-(5-bromo-2-fluorobenzyl)-1H-pyrazol-3-yl]carbonyl}pyrimidin-4-yl)amino]-2-hydroxycyclopentyl}methyl sulfamate] are more than 8.00 and 100%.
On the same counts, the results for `Cc1cc(C(=O)c2cncnc2N[C@@H]2C[C@H](COS(N)(=O)=O)[C@@H](O)C2)nn1Cc1cccc(I)c1` [Compound I-347, {(1R,2S,4R)-2-hydroxy-4-[(5-{[1-(3-iodobenzyl)-5-methyl-1H-pyrazol-3-yl]carbonyl}pyrimidin-4-yl)amino]cyclopentyl}methyl sulfamate] are more than 8.00 and more than 99%.
For `Cc1cc(Cn2ccc(C(=O)c3cncnc3N[C@@H]3C[C@H](COS(N)(=O)=O)[C@@H](O)C3)n2)no1` [Compound I-348, [(1R,2S,4R)-2-hydroxy-4-{[5-({1-[(5-methylisoxazol-3-yl)methyl]-1H-pyrazol-3-yl}carbonyl)pyrimidin-4-yl]amino}cyclopentyl]methyl sulfamate], the pIC50 was more than 8.00 and the inhibition at 0.111 µM came out at 94%.
